Reference: US8569339B2, “Soluble guanylate cyclase activators” (Boehringer Ingelheim International GmbH, priority 2011, dated 2013)
Converted amounts (≈) assume the structure as drawn. “And” between values parts separate entries of the source, which are not always exact repeats. Identical values can stand only once.

What was measured:
[1] = molecular target: T1, Recombinant human soluble guanylate cyclase (sGC) (Homo sapiens, UniProt Q02153); assay: Molecular assay: activation of heme-free sGC, cGMP detection (CisBio kit); assay type: biochemical; details: 300 pM heme-free sGC, 37° C., 60 minutes, cGMP formation
T1 construct: histidine tag (C); made in house; host or cells: Sf9 insect cells (baculovirus coinfection)
Method: The compounds of the invention may be evaluated in the following molecular assay:
Recombinant human soluble guanylate cyclase (sGC) is purified from Sf9 insect cells coinfected with baculoviruses expressing the alpha 1 or beta 1 subunit of sGC, both with a C-terminal histidine tag. Heme-free sGC is prepared by treating cell lysate with a final concentration of 0.5% Tween 20 prior to purification on a nickel affinity column.
sGC catalyzes the conversion of guanosine-5′-triphosphate (GTP) to cyclic guanosine monophosphate (cGMP). The activity of sGC is measured in vitro using the commercially available CisBio cGMP detection kit (catalog #62GM2PEB) in a 384 well format. In brief, 300 pM heme-free sGC is incubated in reaction buffer (50 mM MOPS pH 6.8, 0.2 N KOH, 50 mM NaCl, 2 mM MgCl2, 0.1% BSA, 1.25 mM IBMX, 0.25 mM TCEP, 50 nM GTP) in the presence or absence of dilutions of test compounds diluted in DMSO (final concentration of 1%) in a volume of 10 microL at 37° C. for 60 minutes. Undiluted reaction products or an 80-fold dilution of reaction products (10 microL of either) prepared in reaction buffer containing 0.2 mM TCEP and 10 mM EDTA is mixed with 5 microL of d2-cGMP plus 5 microL of Eu^3+cryptate-labeled anti-cGMP, each diluted in buffer containing 0.1 M KPO4 pH 7.5, 0.4 M KF, 20 mM EDTA, 0.2% BSA. After a one hour incubation at room temperature in the dark, the mixtures are quantified on an EnVision plate reader (PerkinElmer) according to manufacturer instructions (laser excitation 337 nm, emission 620 and 665 nm). The ratio at each compound concentration is converted to nM cGMP using the linear portion of a calibration curve. Log compound concentration is plotted against combined undiluted and diluted nM cGMP values to determine the EC50 for each curve.
Representative compounds of the present invention were tested for activity in the above assay. Preferred compounds have an IC50<5,000 nM and more preferred compounds have an IC50<100 nM in this assay.

[2] = Assessment of solubility (HT solubility, pION, UV); assay type: physicochemical; details: incubated 16-19 hours, 1.0% DMSO, 100 uM; for solubility kinetic: pH 4.5 buffer (pION system solution), pH 4.5, aqueous buffer, kinetic from dmso stock, read-out: Sol pH 4.5; for solubility kinetic / Sol pH 4.5: pH 4.5 buffer; for Sol pH 7.4: pH 7.4 buffer
Method: Solubility is measured by the following method.
DMSO stock samples at 10 mM conc are prepared. […] The samples are pierced and 100 ul of thawed samples are transferred into the PCR plate for analysis. Each sample is run in duplicate at each pH (pH 4.5 and 7.4). Up to 95 samples can be run in replicate at 2 pH's+1 DMSO (blank).
2. Preparation of pH 4.5 and 7.4 buffers:
pH 4.5 buffer: To 12.5 of system solution (pION) qs to 500 mL of distilled water (pH 2.85-2.90); adjust the pH to pH 4.5 with 0.5 N NaOH.
pH 7.4 buffer: To 12.5 of system solution (pION) qs to 500 mL of distilled water (pH 2.85-2.90); adjust the pH to pH 7.4 with 0.5N NaOH.
Preparation of UV blank plate:
75 ul of buffer (pH 7.4 or pH 4.5) is added to UV plate followed by addition of […] of N-propanol. The solution is mixed and the blank spectrum is read using spectrophotometer.
Preparation of Reference UV plate:
10 ul of each stock sample (including DMSO control) is added to 190 ul of N-propanol to prepare the reference stock plate. Reference stock samples are mixed and 5 ul of each stock sample is added to UV blank plate after it is read spectrophotometrically. The reference stock sample is mixed with blank solution in UV plate and the reference spectrum is read using UV spectrophotometer.
Preparation of sample for incubation:
Solubility at pH 7.4: 6 ul of each stock sample (including DMSO control) is added to the storage plate containing 600 ul of pH 7.4 buffer, mixed and incubated for 16-19 hours. The plate is sealed well during the incubation process. The DMSO content in the sample is 1.0%. The concn in deep well plates is 100 uM
6 ul of each stock sample (including DMSO control) is added to the deep well plate containing 600 ul of pH 4.5 buffer, mixed and incubated for 16-19 hours. The plate is sealed well during the incubation process. The DMSO content in the sample is 1.0%. The concn in deep well plates is 100 uM
Preparation of sample UV plate:
At the end of the incubation period, 100 uL of sample from the storage plate is vacuum filtered using a filter plate. This step wets the filters and the filtrate is discarded. Another 200 ul of the sample from the deep well plate is vacuum filtered using the same filter block but a clean filter plate. 75 ul of the filtrate from the filter plate is transferred to a UV sample plate. 75 ul of N-propanol is added to this UV plate. The solution is mixed and the spectrum is read using the UV spectrophotometer.
The spectra collected for blank, reference and sample from 250-498 nm is analyzed using pION software. If the sample precipitates out, the solubility is reported as XX μg/ml. If there is no precipitation and the sample is soluble, solubility is reported as […] (YY being the initial concentration of the compound in the sample).

T1 sequence (Q02108 whole entry partner): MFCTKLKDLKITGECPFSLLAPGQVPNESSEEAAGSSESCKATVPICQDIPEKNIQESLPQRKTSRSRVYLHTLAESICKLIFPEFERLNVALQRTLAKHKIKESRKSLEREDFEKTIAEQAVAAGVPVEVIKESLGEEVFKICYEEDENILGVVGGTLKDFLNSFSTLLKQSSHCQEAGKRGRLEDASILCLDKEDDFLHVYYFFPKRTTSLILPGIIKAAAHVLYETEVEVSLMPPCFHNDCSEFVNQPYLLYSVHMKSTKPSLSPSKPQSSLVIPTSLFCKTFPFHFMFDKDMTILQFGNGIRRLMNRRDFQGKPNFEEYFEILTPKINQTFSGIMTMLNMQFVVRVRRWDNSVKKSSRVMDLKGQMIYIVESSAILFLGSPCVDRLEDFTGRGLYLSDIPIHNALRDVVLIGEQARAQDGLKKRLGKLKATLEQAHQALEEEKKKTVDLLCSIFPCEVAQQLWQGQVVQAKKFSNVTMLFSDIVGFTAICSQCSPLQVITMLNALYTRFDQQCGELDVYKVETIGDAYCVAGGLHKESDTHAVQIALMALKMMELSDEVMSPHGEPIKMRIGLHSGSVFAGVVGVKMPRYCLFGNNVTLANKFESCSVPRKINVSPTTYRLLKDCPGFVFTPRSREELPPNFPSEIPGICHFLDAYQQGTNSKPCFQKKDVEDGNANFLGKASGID
T1 sequence (Q02153 whole entry): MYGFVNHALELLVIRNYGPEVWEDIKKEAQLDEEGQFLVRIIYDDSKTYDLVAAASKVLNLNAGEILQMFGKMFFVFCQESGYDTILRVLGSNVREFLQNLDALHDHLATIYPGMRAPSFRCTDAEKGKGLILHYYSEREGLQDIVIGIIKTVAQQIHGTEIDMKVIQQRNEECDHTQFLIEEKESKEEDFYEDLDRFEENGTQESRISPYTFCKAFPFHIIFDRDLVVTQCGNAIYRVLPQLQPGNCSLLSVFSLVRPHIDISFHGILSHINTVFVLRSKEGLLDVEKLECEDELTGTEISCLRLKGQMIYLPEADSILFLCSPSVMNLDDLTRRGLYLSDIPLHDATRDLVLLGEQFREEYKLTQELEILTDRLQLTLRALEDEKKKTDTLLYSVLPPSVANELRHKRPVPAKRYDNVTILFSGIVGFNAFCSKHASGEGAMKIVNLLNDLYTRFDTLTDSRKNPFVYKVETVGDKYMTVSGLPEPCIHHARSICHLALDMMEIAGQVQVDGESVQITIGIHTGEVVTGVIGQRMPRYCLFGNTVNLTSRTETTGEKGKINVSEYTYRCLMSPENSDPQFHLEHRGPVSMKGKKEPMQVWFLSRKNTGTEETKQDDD

Structure (SMILES) | EC50 [1] [nM] | solubility kinetic [2] [µg/mL] | Sol pH 7.4 [2] | Sol pH 4.5 [2] [μg/mL]
Cc1ccc(OCc2ccc3c(c2)CCN(Cc2nc(C)cs2)C3)c(-c2cccc(-c3csc(C(=O)O)c3C)n2)c1 [Compound 50] | 380 | 13.7 (≈ 23.5 µM) | 13.4 μg/mL | –
Cc1cccc(-c2cccc(-c3ncc(C(=O)O)n3C)n2)c1OCc1ccc2c(c1)CCN(CC1CCCOC1)C2 (stereo not shown) [Compound 73] | 47 | > 67 | >67 μg/mL and >66 μg/mL | >66
Cc1ccc(OCc2ccc3c(c2)CCN(C)C3)c(-c2cccc(-c3sc(C(=O)O)cc3C)n2)c1 [Compound 37, 4-methyl-5-{6-[5-methyl-2-(2-methyl-1,2,3,4-tetrahydro-isoquinolin-6-ylmethoxy)phenyl]pyridin-2-yl}-thiophene-2-carboxylic acid] | 198 | 14.1 (≈ 29.1 µM) | 27.4 μg/mL | –
Cc1ccc(OCc2ccc3c(c2)CCN(C2CCCCC2)C3)c(-c2cccc(-n3ncc(C(=O)O)c3C(F)(F)F)n2)c1 [Compound 19] | 2 | > 58 | >58 μg/mL | –
CCn1nc(C(=O)O)c(C)c1-c1cccc(-c2cccc(C)c2OCc2ccc3c(c2)CCN(C2CCOCC2)C3)n1 [Compound 82] | 210 | > 67 | >67 μg/mL | –
Cc1ccc(OCc2ccc3c(c2)CCN(C2CCCOC2)C3)c(-c2cccc(-n3ncc(C(=O)O)c3C(F)(F)F)n2)c1 (stereo not shown) [Compound 22] | 1 | > 59 | >59 μg/mL | –
Cc1ccc(OCc2ccc3c(c2)CCN(C2CCC2)C3)c(-c2cccc(-n3ncc(C(=O)O)c3C(F)(F)F)n2)c1 [Compound 16] | 33 | > 67 | >67 μg/mL | –
Cc1cccc(-c2cccc(-c3onc(C(=O)O)c3C)n2)c1OCc1ccc2c(c1)CCN(C1CCOCC1)C2 [Compound 86, 4-methyl-5-[6-[3-methyl-2-[(2-tetrahydropyran-4-yl-3,4-dihydro-1H-isoquinolin-6-yl)methoxy]phenyl]-2-pyridyl]isoxazole-3-carboxylic acid] | 775 | > 65 | >65 μg/mL | –
Cc1cccc(-c2cccc(-c3c(C)c(C(=O)O)nn3C)n2)c1OCc1ccc2c(c1)CCN(C1CCOCC1)C2 [Compound 81] | 185 | 48.4 (≈ 87.6 µM) | 31.7 μg/mL | –
Cc1cccc(-c2cccc(-c3c(C)c(C(=O)O)nn3C(C)C)n2)c1OCc1ccc2c(c1)CCN(C1CCOCC1)C2 [Compound 83] | 50 | > 69 | >69 μg/mL | –
Cc1ccc(OCc2ccc3c(c2)CCNC3)c(-c2cccc(-n3ncc(C(=O)O)c3C(F)(F)F)n2)c1 [Compound 4, 1-{6-[5-Methyl-2-(1,2,3,4-tetrahydroisoquinolin-6-ylmethoxy)phenyl]pyridin-2-yl}-5-trifluoromethyl-1H-pyrazole-4-carboxylic acid] | 575 | 17.6 (≈ 34.6 µM) | 21.7 μg/mL | –
Cc1ccc(OCc2ccc3c(c2)CCN(Cc2nc(C)cs2)C3)c(-c2cccc(-n3ncc(C(=O)O)c3C(F)(F)F)n2)c1 [Compound 29] | 0.5 | 12.9 (≈ 20.8 µM) | >61 μg/mL | –
Cc1cccc(-c2cccc(-c3ncc(C(=O)O)n3C)n2)c1OCc1ccc2c(c1)CCN(C1CCCOC1)C2 (stereo not shown) [Compound 75] | 175 | > 65 | >65 μg/mL | –
Cc1ccc(OCc2ccc3c(c2C)CCN(C2CCOCC2)C3)c(-c2cccc(-c3c(C)c(C(=O)O)nn3C)n2)c1 [Compound 80] | 155 | > 81 | >81 μg/mL | –
Cc1ccc(OCc2ccc3c(c2)CCN(S(=O)(=O)CC(=O)O)C3)c(-c2cccc(-n3ncc(C(=O)O)c3C(F)(F)F)n2)c1 [Compound 1] | 148 | > 62 | >62 μg/mL | –
Cc1ccc(OCc2ccc3c(c2)CCN(C2CCOCC2)C3)c(-c2cccc(-c3ncc(C(=O)O)n3C)n2)c1 [Compound 66] | 1830 | > 53 | >53 μg/mL | –
Cc1cccc(-c2cccc(-n3ncc(C(=O)O)c3C)n2)c1OCc1ccc2c(c1)CCN(C1CCOCC1)C2 [Compound 64] | 21 | > 78 | >78 μg/mL | –
Cc1ccc(OCc2ccc3c(c2)nnn3C)c(-c2cccc(-n3ncc(C(=O)O)c3C(F)(F)F)n2)c1 [Compound 10] | 280 | 0.95 (≈ 1.87 µM) | >50 μg/mL | –
Cc1cccc(-c2cccc(-c3ncc(C(=O)O)n3C)n2)c1OCc1ccc2c(c1)CCN(C1CCC(F)(F)CC1)C2 [Compound 74] | 27 | > 66 | >66 μg/mL and >68 μg/mL | >68
Cc1ccc(OCc2ccc3c(c2C)CCN(C)C3)c(-c2cccc(-n3ncc(C(=O)O)c3C(F)(F)F)n2)c1 [Compound 38] | 46 | 15.5 (≈ 28.9 µM) | 18.4 μg/mL | –
Cc1ccc(OCc2ccc3c(c2)CCN(CC2CCCOC2)C3)c(-c2cccc(-n3ncc(C(=O)O)c3C(F)(F)F)n2)c1 (stereo not shown) [Compound 26] | 3 | > 60 | >60 μg/mL | –
Cc1ccc(OCc2ccc3c(c2)CCN(Cc2cnccn2)C3)c(-c2cccc(-n3ncc(C(=O)O)c3C(F)(F)F)n2)c1 [Compound 24] | 9 | 40 (≈ 66.6 µM) | >59 μg/mL | –
Cc1cccc(-c2cccc(-c3ncc(C(=O)O)n3C)n2)c1OCc1ccc2c(c1)CCN(C1CCCCCC1)C2 [Compound 76] | 100 | > 66 | >66 μg/mL | –
Cc1ccc(OCc2ccc3c(c2)CCN(CC2CCOC2)C3)c(-c2cccc(-n3ncc(C(=O)O)c3C(F)(F)F)n2)c1 (stereo not shown) [Compound 23] | 2 | > 59 | >59 μg/mL | –
Cc1csc(CN2CCc3cc(COc4c(C)cccc4-c4cccc(-c5ncc(C(=O)O)n5C)n4)ccc3C2)n1 [Compound 69] | 8 | – | – | –
Cc1cccc(-c2cccc(-c3ncc(C(=O)O)n3C)n2)c1OCc1ccc2c(c1)CCN(CC1CCOCC1)C2 [Compound 68] | 180 | – | – | –
